Assay results: patent US20220146526A1, “METHOD FOR EVALUATING SAMPLE, ANALYSIS METHOD, METHOD FOR DETECTING DEGRADED SAMPLE, MARKER FOR DETECTING DEGRADED BLOOD PLASMA SAMPLE, AND MARKER FOR DETECTING DEGRADED SERUM SAMPLE” (SHIMADZU CORPORATION, priority 2019, published 2022)
Values joined by “and” are separate entries in the source; they are usually repeats but may differ in a detail not shown here. Identical values can stand only once.

Key:
Assay type in all cases: physicochemical, human
[1] = GC/MS of serum sample: time from blood collection to centrifugation (Table G); settings: for Rate of increase or decrease: detection intensity relative to 1 at 15 minutes; for Rate of increase or decrease / Increase or decrease: blood collection to centrifugation; for Increase or decrease: detection intensity
Method: (§1) After standing, the blood sample was subjected to centrifugation under a condition of room temperature, 3500 rpm, and 5 minutes. […] After centrifugation, the blood-collecting vessel was left to stand at room temperature, and the serum was isolated during this time. Here, in order to investigate how the detection intensity of molecules contained in the sample was affected in cases where the time during which the blood-collecting vessel was left at room temperature was set to 1 hour and 6 hours as compared to that in a case where the time was set to 30 minutes, preparations were performed under the respective conditions of 30 minutes, 1 hour, and 6 hours. The obtained serum sample was frozen and stored. Here, in order to investigate how the detection intensity of molecules contained in the sample was affected in cases where freezing and thawing was performed 4 times, 6 times, and 10 times after freezing as compared to that in a case where freezing and thawing was performed 2 times after freezing, freezing and thawing was performed under the respective conditions of 2, 4, 6, and 10 times.
(§2) Frozen blood plasma samples and serum samples were subjected to GC/MS or LC/MS. In GC/MS, the blood plasma samples and serum samples were subjected to methoxymation and trimethylsilylation and then introduced to GC-MS.
(§3) GC/MS was conducted using GCMS·TQ8040 (Shimadzu Corporation) that was a GC·MS equipped with AOC·20i (Shimadzu Corporation) as an autosampler.
(§4) Column: BPX5 (inner diameter of 0.25 mm, length of 30 m, and film thickness of 0.25 μm) (SGE)
(§5) Column temperature: maintained at 60° C. for 2 minutes, then raised at 15° C./min, and maintained at 330° C. for 3 minutes.
(§6) Inlet temperature: 250° C.
(§7) Carrier gas control mode: constant linear velocity of 39.0 cm/sec
(§8) Sample introduction method: split (split ratio of 30:1) Injection volume: 1 μL
(§9) Ionization method: electron ionization
(§10) Ionization current: 60 μA
(§11) Interface temperature: 280° C.
(§12) Ion source temperature: 200° C.
(§13) Mode: multiple reaction monitoring (MRM)
The rate of increase or decrease in Table G is the value of detection intensity relative to 1 that is the detection intensity in a case where the time from blood collection to centrifugation is set to 15 minutes.

[2] = GC/MS of serum sample: time from centrifugation to isolation (Table H); parameters: key to Rate of increase or decrease / Rate of increase or decrease (first value, increase): detection intensity relative to 1 at 30 min centrifugation-to-isolation; settings: for Rate of increase or decrease: detection intensity relative to 1 at 30 minutes; for Increase or decrease: detection intensity
Method: as §1, §2, §3, §4, §5, §6, §7, §8, §9, §10, §11, §12, §13
The rate of increase or decrease in Table H is the value of detection intensity relative to 1 that is the detection intensity in a case where the time from centrifugation to isolation is set to 30 minutes.

[3] = GC/MS of serum sample: number of times of freezing and thawing (Table I); parameters: key to Rate of increase or decrease / Rate of increase or decrease (first value, increase): detection intensity relative to 2 freeze-thaw cycles = 1; settings: for Rate of increase or decrease: detection intensity relative to 1 at 2 times; for Number of times when compound is affected: detection intensity changed by 30% or more vs 2 times of freezing and thawing
Method: as §1, §2, §3, §4, §5, §6, §7, §8, §9, §10, §11, §12, §13
The rate of increase or decrease in Table I is the value of detection intensity relative to 1 that is the detection intensity in a case where the number of times of freezing and thawing is set to 2 times.

[4] = serum, GC/MS, freezing and thawing 4 times
[5] = detection intensity, serum, GC/MS, freezing and thawing 4 times vs 2 times
[6] = 10 times of freezing and thawing
[7] = serum sample, GC/MS, detection intensity vs 2 times of freezing and thawing
[8] = detection intensity, serum, GC/MS, freezing and thawing 10 times vs 2 times
[9] = serum, GC/MS, freezing and thawing 10 times
[10] = serum, GC/MS, freezing and thawing 6 times
[11] = detection intensity, serum, GC/MS, freezing and thawing 6 times vs 2 times

| Structure (SMILES) | Rate of increase or decrease ([1]; after 4 hours) | Increase or decrease ([1]; after 4 hours vs 15 minutes) | Rate of increase or decrease ([2]; after 1 hour) | Increase or decrease ([2]; after 1 hour vs 30 minutes) | Rate of increase or decrease [3, 4] | Increase or decrease [3, 5] | Rate of increase or decrease ([2]; after 6 hours) | Increase or decrease ([2]; after 6 hours vs 30 minutes) | other results |
| --- | --- | --- | --- | --- | --- | --- | --- | --- | --- |
| O=C(O)CCc1c[nH]c2ccccc12 [3-Indolepropionic acid] | 1.93 | Increase |  |  |  |  | 1.54 | Increase | Increase or decrease [3, 8]: Different from individual; Rate of increase or decrease (second value, decrease) ([3]; different from individual to individual, individuals with decrease, relative to 1 at 2 times, serum, GC/MS, freezing and thawing 10 times): 0.67; Rate of increase or decrease (first value, increase) ([3]; different from individual to individual, individuals with increase, relative to 1 at 2 times, serum, GC/MS, freezing and thawing 10 times): 2.21 |
| CCCCCCC(N)C(=O)O (centres unmarked) [2-Aminooctanoic acid] | 1.60 | Increase | 1.67 | Increase | 2.80 | Increase |  |  |  |
| O=C(O)C(=O)CO [3-Hydroxypyruvic acid] | 0.58 | Decrease |  |  |  |  | 1.88 | Increase | Rate of increase or decrease [3, 9]: 4.59; Increase or decrease [3, 8]: Increase |
| NCCCCCN [Cadaverine] | 1.38 | Increase | 0.50 | Decrease |  |  |  |  | Rate of increase or decrease [3, 10]: 2.31; Increase or decrease [3, 11]: Increase |
| CC(=O)CC(=O)O [Acetoacetic acid] |  |  |  |  | 1.39 | Increase | 1.39 | Increase | Rate of increase or decrease ([1]; after 8 hours): 1.46; Increase or decrease ([1]; after 8 hours vs 15 minutes): Increase |
| O=C(O)c1ccccc1 [Benzoic acid] | 1.30 | Decrease | 0.69 | Decrease |  |  |  |  | Rate of increase or decrease [3, 6]: 3.86; Number of times when compound is affected ([3]; serum sample, GC/MS): 10 times; Increase or decrease [3, 7]: Increase |
| O=C(O)CCCCC(=O)O [Adipic acid] |  | Different from individual | 2.50 | Increase |  |  |  |  | Rate of increase or decrease (second value, decrease) ([1]; different from individual to individual, individuals with decrease, relative to 1 at 15 minutes, collection to centrifugation, after 4 hours): 0.61; Rate of increase or decrease (first value, increase) ([1]; different from individual to individual, individuals with increase, relative to 1 at 15 minutes, collection to centrifugation, after 4 hours): 2.06; Rate of increase or decrease [3, 9]: 2.14; Increase or decrease [3, 8]: Increase |

Continued, in another order:

| Rate of increase or decrease ([1]; after 4 hours) | Increase or decrease ([1]; after 4 hours vs 15 minutes) | Rate of increase or decrease ([2]; after 1 hour) | Increase or decrease ([2]; after 1 hour vs 30 minutes) | Rate of increase or decrease [3, 4] | Increase or decrease [3, 5] | Rate of increase or decrease ([2]; after 6 hours) | Increase or decrease ([2]; after 6 hours vs 30 minutes) | Structure (SMILES) | other results |
| --- | --- | --- | --- | --- | --- | --- | --- | --- | --- |
| 0.58 and 0.55 | Decrease | 1.31 | Increase | 0.45 and 0.46 | Decrease |  |  | O=C(CO)[C@H](O)CO [Erythrulose] |  |
|  |  |  | Different from individual | 1.33 | Increase |  |  | O=C1O[C@H](CO)[C@@H](O)[C@H]1O [Ribonic acid lactone] | Rate of increase or decrease ([1]; after 8 hours): 0.68; Increase or decrease ([1]; after 8 hours vs 15 minutes): Decrease; Rate of increase or decrease (second value, decrease) ([2]; different from individual to individual, individuals with decrease, relative to 1 at 30 minutes, after 1 hour): 0.57; Rate of increase or decrease (first value, increase) ([2]; different from individual to individual, individuals with increase, relative to 1 at 30 minutes, after 1 hour): 1.71 |
| 0.65 | Decrease | 0.66 | Decrease |  |  |  |  | CC(=O)C(=O)O [Pyruvic acid] |  |
| 2.37 | Increase |  |  |  |  | 3.34 | Increase | NCCc1ccc(O)cc1 [Tyramine] | Rate of increase or decrease [3, 6]: 3.78; Number of times when compound is affected ([3]; serum sample, GC/MS): 10 times; Increase or decrease [3, 7]: Increase |
| 2.01 | Increase | 0.33 | Decrease |  |  |  |  | CC(O)(CC(=O)O)C(=O)O (centres unmarked) [Citramalic acid] | Rate of increase or decrease [3, 6]: 0.53; Number of times when compound is affected ([3]; serum sample, GC/MS): 10 times; Increase or decrease [3, 7]: Decrease |
|  |  | 1.54 | Increase |  |  |  |  | NCCCCN [Putrescine] | Rate of increase or decrease ([1]; after 8 hours): 1.44; Increase or decrease ([1]; after 8 hours vs 15 minutes): Increase; Rate of increase or decrease [3, 6]: 1.77; Number of times when compound is affected ([3]; serum sample, GC/MS): 10 times; Increase or decrease [3, 7]: Increase |
|  |  |  |  | 0.56 | Decrease | 1.45 | Increase | O=C(O)[C@@H](O)[C@H](O)CO [Threonic acid] | Rate of increase or decrease ([1]; after 8 hours): 0.55; Increase or decrease ([1]; after 8 hours vs 15 minutes): Decrease |
| 1.38 | Increase |  |  |  |  | 4.84 | Increase | O=c1cc[nH]c(=O)[nH]1 [Uracil] | Rate of increase or decrease [3, 10]: 1.54; Increase or decrease [3, 11]: Increase |
|  |  | 1.75 | Increase | 2.61 | Increase |  |  | O=C(O)CCCc1ccccc1 [Phenylbutyric acid] | Rate of increase or decrease ([1]; after 12 hours): 2.17; Increase or decrease ([1]; after 12 hours vs 15 minutes): Increase |
